According to patent US20240082342A1, “PEPTIDE THERAPEUTICS FOR INCREASING LUNG CELL VIABILITY” (BOARD OF REGENTS, THE UNIVERSITY OF TEXAS SYSTEM, priority 2018, published 2024):
Entries after “also recorded” stand apart in the source; their conditions may differ.

Experiments:
[1] = tested on: A2Cs of WT mice exposed to tobacco smoke; experiment: Chronic passive tobacco smoke (20 weeks) lung injury in WT mice, A2C telomere analyses; format: in vivo, mouse; details: 20 weeks smoke
Experimental: Relative telomere length was also analyzed by qPCR analysis of the genomic DNA as described by Callicott R J et al., (Comp Med 2006; 56:17-22) and Cawthon RM (Nucleic Acids Res 2002; 30:e47-e47). The […] gene was served as the control.
To test the effect of chronic TS exposure induced lung injury, these mice were exposed to passive TS from 40 research cigarettes over a 4 h period 5 days/week for 20 weeks (˜90 mg/m3 total solid particulates) using a mechanical smoking chamber (Teague Enterprises, Davis, CA) as described earlier. (Bhandary et al, 2015). Control mice were kept in ambient air. After sixteen weeks of daily passive TS exposure, mice with TS exposure injury were treated with CSP7 at a dosage of 1.5 mg/kg body weight daily 5 days/week for the next four weeks. These mice were continued with daily exposure of 4 h of TS during CSP7 treatment. At the end of the experiment (after 20 weeks of TS exposure), the mice were euthanized, and lungs were utilized for further analyses. To expand the local delivery options of CSP7 to directly treat the damaged lung by air-jet milling for dry powder inhalation (DPI). Mice exposed to TSE were treated with CSP7 using a rotating brush generator for 15 min daily for 7 days. Fourteen days later, […] were subjected to daily inhalation of micronized CSP7 (0.05 mg/kg/d) DP through air-jet-milling for seven consecutive days using a rotating brush exposure system. The rotating brush exposure system gave a consistent minimal chamber concentration of 0.1 mg/L. In order to match dosing of DP inhalation, animal exposure times were adjusted to approximately 15 minutes and an estimated dose of 0.05 mg/kg/d or 1.00 microgram/lung was administered. […]
Measurement of terminal restriction fragment (telomeric) length. For the determination of telomeric length, the TeloTTAGGG Telomere Length Assay Kit (Roche Diagnostics GmbH) was used. Briefly, genomic DNA was isolated and digested with Hinf1/Rsa. The digested DNA fragments were then separated by electrophoresis on agarose gel followed by Southern blot transfer. The membrane was then hybridized with a telomere specific digoxigenin (DIG)-labelled probe, incubated with anti-DIG alkaline phosphatase, and documented with chemiluminescence detection in gel-doc unit (Bio-Rad Laboratories). Telomeric length was identified by comparing with the pre-labelled molecular weight marker. The relative telomere length was calculated according to the protocol provided. In addition, relative telomere length was analyzed by qPCR analysis of the genomic DNA. (Cawthon, Nucleic Acids Res 2002, 30:e47-e47; Alder et al, Proc Natl Acad Sci USA 2015, 112:5099-5104.) The 36B4 gene was served as the control.

[2] = tested on: A2Cs of PAI-1^−/− mice; experiment: Tobacco smoke or repeated bleomycin exposure of PAI-1-/- mice; format: in vivo, mouse; details: for IHC TRF1 or TRF2 antigen expression / telomerase enzyme activity (trapeze) / telomere length: PAI-1-/- mice; for IHC TRF1 or TRF2 antigen expression / telomerase enzyme activity (trapeze): TS; for telomere length: smoke or BLM; for p53, Acp53, S15p53, cleaved caspase-3, β-galactosidase, SIAH1/2, PNUTS, TRF1, TRF2, TERT (Western blot): 8X-BLM; for telomere length (qPCR): 20 weeks TS; for p53, Acp53, S15p53, cleaved caspase-3, β-galactosidase in AT2 cells (Western blot): CS 20 weeks
Experimental: To analyze the effect of cigarette smoke, mice were exposed to passive smoke from 40 research cigarettes over a 2-hour period once (2 h) or twice (4 h) daily for 5 days/week for 20 weeks (˜90 mg/m^3 total solid particulates) using a mechanical smoking chamber (Teague Enterprises, Davis, CA). Control mice were exposed to ambient air. At the 18th week, peptide treatment at a dosage of 30 μg/20 g body weight was initiated and continued on a daily basis for the next 14 days. At the end of the experiment, the mice were euthanized and used for the experiments.
To analyze the effect of BLM, mice were exposed to BLM (40 μg/20 g body weight) once per two week for 16 weeks. Control mice were exposed to normal saline. At 14th week the peptide treatment at a dosage of 30 μg/20 g body weight was initiated and continued on a daily basis for the next 14 days. At the end of the experiment, the mice were euthanized and used for the experiments.
To test the effect of chronic TS exposure induced lung injury, these mice were exposed to passive TS from 40 research cigarettes over a 4 h period 5 days/week for 20 weeks (˜90 mg/m3 total solid particulates) using a mechanical smoking chamber (Teague Enterprises, Davis, CA) as described earlier. (Bhandary et al, 2015). Control mice were kept in ambient air. After sixteen weeks of daily passive TS exposure, mice with TS exposure injury were treated with CSP7 at a dosage of 1.5 mg/kg body weight daily 5 days/week for the next four weeks. These mice were continued with daily exposure of 4 h of TS during CSP7 treatment. At the end of the experiment (after 20 weeks of TS exposure), the mice were euthanized, and lungs were utilized for further analyses. To expand the local delivery options of CSP7 to directly treat the damaged lung by air-jet milling for dry powder inhalation (DPI). Mice exposed to TSE were treated with CSP7 using a rotating brush generator for 15 min daily for 7 days. Fourteen days later, BLM mice were subjected to daily inhalation of micronized CSP7 (0.05 mg/kg/d) DP through air-jet-milling for seven consecutive days using a rotating brush exposure system. The rotating brush exposure system gave a consistent minimal chamber concentration of 0.1 mg/L. In order to match dosing of DP inhalation, animal exposure times were adjusted to approximately 15 minutes and an estimated dose of 0.05 mg/kg/d or 1.00 microgram/lung was administered.
To evaluate the effect of CSP7 against chronic BLM-induced PF, the mice were exposed to BLM (40 μg/20 g body weight) once every two weeks for 16 weeks as described elsewhere. (Tiwari et al, 2016). Control mice were exposed to normal saline. Fourteen weeks later the CSP7 at a dosage of 1.5 mg/kg body weight was administered by IP injection and continued daily basis for the next two weeks as described elsewhere. (Tiwari et al, 2016; Shetty et al, 2008b). At the end of the experiment, the mice were euthanized and lung tissues and isolated A2Cs from the extracted lung tissues were used for further analysis.

| Substance | SIAH-1 expression in A2Cs [1] | IHC TRF1 or TRF2 antigen expression [2] | telomerase enzyme activity (trapeze) [2] | telomere length [2] | p53, Acp53, S15p53, cleaved caspase-3, β-galactosidase, SIAH1/2, PNUTS, TRF1, TRF2, TERT (Western blot) ([2]; PAI-1-deficient mice) | telomere length (qPCR) ([2]; PAI-1-deficient mice) | p53, Acp53, S15p53, cleaved caspase-3, β-galactosidase in AT2 cells (Western blot) ([2]; PAI-1-deficient mice) | IHC of lung sections for TRF2, p53, PAI-1, TRF1 [1] | TRF2 and TERT expression in A2Cs [1] | p53, cleaved caspase-3 and β-galactosidase expression in A2Cs (Western blot) [1] | TERT enzyme activity (TRAPeze assay) ([1]; vs CP group) | relative telomere length of A2Cs (qPCR), telomere shortening ([1]; vs control peptide CP) | expression of p53 in A2Cs ([2]; PAI-1-deficient mice, TS or BLM) |
| --- | --- | --- | --- | --- | --- | --- | --- | --- | --- | --- | --- | --- | --- |
| WGIDKAFFTTSTVTYKWFRY [CP, scrambled control peptide with the same amino acid composition as CSP, reference compound] | still showed elevated p53 and SIAH-1 | minimal change in TRF1 or TRF2 antigen expression | no significant change activity | no significant change in telomere length | little or no difference | minimal effect on telomere length | little or no difference | – | – | – | – | – | – |
| FTTFTVT (listed as Homo sapiens) [CSP7, heptapeptide fragment of the caveolin-1 scaffolding domain peptide CSP] | Downregulation of SIAH-1 was significantly more; also recorded: markedly downregulated | minimal change in TRF1 or TRF2 antigen expression | no significant change activity | no significant change in telomere length | little or no difference | minimal effect on telomere length | little or no difference | restoration of TRF2 expression with reduction in p53 and PAI-1 expression | restoration of TRF2 and TERT expression | significant decrease; also recorded: markedly suppressed | significantly higher | significant resistance in telomere shortening | minimal effect |
